# Laboratory results as given in ChEMBL document CHEMBL3885861, “Open TG-GATES”.
# Organism: Rattus norvegicus
# Assay: Open TG-GATES - Regimen: Single
# Type: toxicity, organism-based, Sprague-Dawley
# Parameters: regimen Single, gender Male, age 6 weeks
# Details: in vivo, po, route gavage; for APTT / Bas / Eos / Fbg / Hb / Ht / Lym / MCHC / MCV / Mono / Neu / PT / Plat / RBC / Ret / WBC: tissue Blood; for KIDNEY_L / KIDNEY_R / KIDNEY_TOTAL: tissue Kidney; for LIVER: tissue Liver; for ALP / ALT / AST / BUN / CRE / Ca / Cl / DBIL / GLC / IP / K / LDH / Na / PL / RALB / TBIL / TC / TG / TP / gamma-GTP: tissue Plasma
# [1] = 50 mg/kg, 3 h, dose level Middle
# [2] = 50 mg/kg, 6 h, dose level Middle
# [3] = 50 mg/kg, 9 h, dose level Middle
# [4] = 50 mg/kg, 24 h, dose level Middle
# [5] = 150 mg/kg, 3 h, dose level High
# [6] = 150 mg/kg, 6 h, dose level High
# [7] = 150 mg/kg, 9 h, dose level High
# [8] = 150 mg/kg, 24 h, dose level High
smiles,measurement,setting,value
C1CCC(C(CC2CCCCN2)C2CCCCC2)CC1 (stereo not drawn) [PERHEXILINE],TERMINAL_BW,[1],207.9 g
same,APTT,[1],22 s
same,Bas,[1],0%
same,Eos,[1],0.8%
same,Fbg,[1],319.8 mg/dL
same,Hb,[1],13.6 g/dL
same,Ht,[1],40.9%
same,Lym,[1],77.6%
same,MCHC,[1],33.3%
same,MCV,[1],62.5 fL
same,Mono,[1],1.8%
same,Neu,[1],19%
same,PT,[1],15.7 s
same,Plat,[1],132.9 x10_4/uL
same,RBC,[1],656 x10_4/ul
same,Ret,[1],6.5%
same,WBC,[1],52.6 x10_2/uL
same,KIDNEY_L,[1],1 g
same,KIDNEY_R,[1],1 g
same,KIDNEY_TOTAL,[1],2 g
same,LIVER,[1],9.4 g
same,ALP,[1],1767.8 IU/L
same,ALT,[1],47.4 IU/L
same,AST,[1],72 IU/L
same,BUN,[1],10.8 mg/dL
same,CRE,[1],0.1 mg/dL
same,Ca,[1],10.8 mg/dL
same,Cl,[1],105 meq/L
same,DBIL,[1],0.004 mg/dL
same,GLC,[1],164.6 mg/dL
same,IP,[1],9.2 mg/dL
same,K,[1],4 meq/L
same,LDH,[1],190.6 IU/L
same,Na,[1],140.4 meq/L
same,PL,[1],140.2 mg/dL
same,RALB,[1],3.1 g/dL
same,TBIL,[1],0.012 mg/dL
same,TC,[1],73 mg/dL
same,TG,[1],65.8 mg/dL
same,TP,[1],5.7 g/dL
same,gamma-GTP,[1],0.8 IU/L
same,TERMINAL_BW,[2],216.9 g
same,APTT,[2],21.5 s
same,Bas,[2],0%
same,Eos,[2],1%
same,Fbg,[2],325.6 mg/dL
same,Hb,[2],13 g/dL
same,Ht,[2],38.7%
same,Lym,[2],72.8%
same,MCHC,[2],33.5%
same,MCV,[2],62.6 fL
same,Mono,[2],2.8%
same,Neu,[2],22.2%
same,PT,[2],15.7 s
same,Plat,[2],126.8 x10_4/uL
same,RBC,[2],619.8 x10_4/ul
same,Ret,[2],7.7%
same,WBC,[2],94.8 x10_2/uL
same,KIDNEY_L,[2],1.1 g
same,KIDNEY_R,[2],1 g
same,KIDNEY_TOTAL,[2],2.1 g
same,LIVER,[2],9.5 g
same,ALP,[2],1607.2 IU/L
same,ALT,[2],40.4 IU/L
same,AST,[2],69.8 IU/L
same,BUN,[2],11.4 mg/dL
same,CRE,[2],0.2 mg/dL
same,Ca,[2],10.9 mg/dL
same,Cl,[2],105.2 meq/L
same,DBIL,[2],0.006 mg/dL
same,GLC,[2],161 mg/dL
same,IP,[2],10.1 mg/dL
same,K,[2],4.5 meq/L
same,LDH,[2],182.6 IU/L
same,Na,[2],139 meq/L
same,PL,[2],137.8 mg/dL
same,RALB,[2],3 g/dL
same,TBIL,[2],0.014 mg/dL
same,TC,[2],69.2 mg/dL
same,TG,[2],81.6 mg/dL
same,TP,[2],5.6 g/dL
same,gamma-GTP,[2],1 IU/L
same,TERMINAL_BW,[3],203.5 g
same,APTT,[3],21 s
same,Bas,[3],0%
same,Eos,[3],0.6%
same,Fbg,[3],325.2 mg/dL
same,Hb,[3],13.1 g/dL
same,Ht,[3],39.1%
same,Lym,[3],76.2%
same,MCHC,[3],33.6%
same,MCV,[3],63.4 fL
same,Mono,[3],1.8%
same,Neu,[3],20.2%
same,PT,[3],15.5 s
same,Plat,[3],130 x10_4/uL
same,RBC,[3],617.6 x10_4/ul
same,Ret,[3],7.4%
same,WBC,[3],69.7 x10_2/uL
same,KIDNEY_L,[3],1 g
same,KIDNEY_R,[3],1 g
same,KIDNEY_TOTAL,[3],1.9 g
same,LIVER,[3],8.5 g
same,ALP,[3],1598.6 IU/L
same,ALT,[3],40.2 IU/L
same,AST,[3],69 IU/L
same,BUN,[3],11 mg/dL
same,CRE,[3],0.1 mg/dL
same,Ca,[3],10.8 mg/dL
same,Cl,[3],105.4 meq/L
same,DBIL,[3],0.002 mg/dL
same,GLC,[3],169.8 mg/dL
same,IP,[3],9.9 mg/dL
same,K,[3],4.1 meq/L
same,LDH,[3],238.2 IU/L
same,Na,[3],139.2 meq/L
same,PL,[3],137 mg/dL
same,RALB,[3],3 g/dL
same,TBIL,[3],0.018 mg/dL
same,TC,[3],78.6 mg/dL
same,TG,[3],39.4 mg/dL
same,TP,[3],5.6 g/dL
same,gamma-GTP,[3],1 IU/L
same,TERMINAL_BW,[4],220 g
same,APTT,[4],20.4 s
same,Bas,[4],0%
same,Eos,[4],1%
same,Fbg,[4],309.4 mg/dL
same,Hb,[4],13.5 g/dL
same,Ht,[4],40.3%
same,Lym,[4],82%
same,MCHC,[4],33.4%
same,MCV,[4],63.4 fL
same,Mono,[4],2%
same,Neu,[4],14%
same,PT,[4],15.6 s
same,Plat,[4],116.9 x10_4/uL
same,RBC,[4],635.4 x10_4/ul
same,Ret,[4],6.5%
same,WBC,[4],92.8 x10_2/uL
same,KIDNEY_L,[4],0.9 g
same,KIDNEY_R,[4],1 g
same,KIDNEY_TOTAL,[4],1.9 g
same,LIVER,[4],10.2 g
same,ALP,[4],1673.6 IU/L
same,ALT,[4],43.2 IU/L
same,AST,[4],72.8 IU/L
same,BUN,[4],15.4 mg/dL
same,CRE,[4],0.2 mg/dL
same,Ca,[4],10.7 mg/dL
same,Cl,[4],108 meq/L
same,DBIL,[4],0 mg/dL
same,GLC,[4],179.8 mg/dL
same,IP,[4],7.4 mg/dL
same,K,[4],4.4 meq/L
same,LDH,[4],240.6 IU/L
same,Na,[4],143.4 meq/L
same,PL,[4],146.4 mg/dL
same,RALB,[4],3.2 g/dL
same,TBIL,[4],0.01 mg/dL
same,TC,[4],72 mg/dL
same,TG,[4],117.2 mg/dL
same,TP,[4],5.6 g/dL
same,gamma-GTP,[4],1 IU/L
same,TERMINAL_BW,[5],215.1 g
same,APTT,[5],21.8 s
same,Bas,[5],0%
same,Eos,[5],0.8%
same,Fbg,[5],336.6 mg/dL
same,Hb,[5],13.3 g/dL
same,Ht,[5],40.3%
same,Lym,[5],71.2%
same,MCHC,[5],33.1%
same,MCV,[5],65.5 fL
same,Mono,[5],1.6%
same,Neu,[5],24.8%
same,PT,[5],16 s
same,Plat,[5],129.8 x10_4/uL
same,RBC,[5],616 x10_4/ul
same,Ret,[5],7.7%
same,WBC,[5],64 x10_2/uL
same,KIDNEY_L,[5],0.9 g
same,KIDNEY_R,[5],1 g
same,KIDNEY_TOTAL,[5],1.9 g
same,LIVER,[5],9.3 g
same,ALP,[5],1714.6 IU/L
same,ALT,[5],57.2 IU/L
same,AST,[5],80 IU/L
same,BUN,[5],11 mg/dL
same,CRE,[5],0.1 mg/dL
same,Ca,[5],10.6 mg/dL
same,Cl,[5],104.8 meq/L
same,DBIL,[5],0.002 mg/dL
same,GLC,[5],173.6 mg/dL
same,IP,[5],9.4 mg/dL
same,K,[5],3.8 meq/L
same,LDH,[5],215.2 IU/L
same,Na,[5],140.2 meq/L
same,PL,[5],133.2 mg/dL
same,RALB,[5],3.2 g/dL
same,TBIL,[5],0.016 mg/dL
same,TC,[5],73.2 mg/dL
same,TG,[5],46.8 mg/dL
same,TP,[5],5.8 g/dL
same,gamma-GTP,[5],0.8 IU/L
same,TERMINAL_BW,[6],213.5 g
same,APTT,[6],22.8 s
same,Bas,[6],0%
same,Eos,[6],1%
same,Fbg,[6],336.8 mg/dL
same,Hb,[6],13.1 g/dL
same,Ht,[6],39.1%
same,Lym,[6],68.8%
same,MCHC,[6],33.5%
same,MCV,[6],62.8 fL
same,Mono,[6],1.8%
same,Neu,[6],27.2%
same,PT,[6],15.2 s
same,Plat,[6],142.9 x10_4/uL
same,RBC,[6],622.4 x10_4/ul
same,Ret,[6],7.9%
same,WBC,[6],59.6 x10_2/uL
same,KIDNEY_L,[6],1 g
same,KIDNEY_R,[6],1 g
same,KIDNEY_TOTAL,[6],1.9 g
same,LIVER,[6],9.1 g
same,ALP,[6],1591 IU/L
same,ALT,[6],51.8 IU/L
same,AST,[6],75.8 IU/L
same,BUN,[6],10.6 mg/dL
same,CRE,[6],0.1 mg/dL
same,Ca,[6],10.6 mg/dL
same,Cl,[6],106 meq/L
same,DBIL,[6],0.002 mg/dL
same,GLC,[6],172.4 mg/dL
same,IP,[6],9.2 mg/dL
same,K,[6],4.2 meq/L
same,LDH,[6],238.8 IU/L
same,Na,[6],140.2 meq/L
same,PL,[6],148.6 mg/dL
same,RALB,[6],3.2 g/dL
same,TBIL,[6],0.018 mg/dL
same,TC,[6],75 mg/dL
same,TG,[6],82 mg/dL
same,TP,[6],5.7 g/dL
same,gamma-GTP,[6],1 IU/L
same,TERMINAL_BW,[7],220.6 g
same,APTT,[7],21.1 s
same,Bas,[7],0%
same,Eos,[7],1%
same,Fbg,[7],326.4 mg/dL
same,Hb,[7],13.2 g/dL
same,Ht,[7],39.7%
same,Lym,[7],66.8%
same,MCHC,[7],33.2%
same,MCV,[7],63.9 fL
same,Mono,[7],1.6%
same,Neu,[7],30%
same,PT,[7],15.5 s
same,Plat,[7],128.9 x10_4/uL
same,RBC,[7],622.8 x10_4/ul
same,Ret,[7],7.7%
same,WBC,[7],64.2 x10_2/uL
same,KIDNEY_L,[7],1.1 g
same,KIDNEY_R,[7],1.1 g
same,KIDNEY_TOTAL,[7],2.1 g
same,LIVER,[7],9.7 g
same,ALP,[7],1539.6 IU/L
same,ALT,[7],39 IU/L
same,AST,[7],66.6 IU/L
same,BUN,[7],11.4 mg/dL
same,CRE,[7],0.1 mg/dL
same,Ca,[7],10.9 mg/dL
same,Cl,[7],105.2 meq/L
same,DBIL,[7],0.004 mg/dL
same,GLC,[7],171.2 mg/dL
same,IP,[7],9.6 mg/dL
same,K,[7],4 meq/L
same,LDH,[7],217.8 IU/L
same,Na,[7],138.8 meq/L
same,PL,[7],121 mg/dL
same,RALB,[7],3 g/dL
same,TBIL,[7],0.014 mg/dL
same,TC,[7],62 mg/dL
same,TG,[7],48.2 mg/dL
same,TP,[7],5.6 g/dL
same,gamma-GTP,[7],1 IU/L
same,TERMINAL_BW,[8],208.6 g
same,APTT,[8],21.2 s
same,Bas,[8],0%
same,Eos,[8],1%
same,Fbg,[8],327.6 mg/dL
same,Hb,[8],13.6 g/dL
same,Ht,[8],40.4%
same,Lym,[8],82%
same,MCHC,[8],33.6%
same,MCV,[8],62.7 fL
same,Mono,[8],1.2%
same,Neu,[8],15.4%
same,PT,[8],16.1 s
same,Plat,[8],132.8 x10_4/uL
same,RBC,[8],645.6 x10_4/ul
same,Ret,[8],6%
same,WBC,[8],65.9 x10_2/uL
same,KIDNEY_L,[8],0.9 g
same,KIDNEY_R,[8],1 g
same,KIDNEY_TOTAL,[8],1.9 g
same,LIVER,[8],9.4 g
same,ALP,[8],1840.2 IU/L
same,ALT,[8],50 IU/L
same,AST,[8],71.6 IU/L
same,BUN,[8],15.4 mg/dL
same,CRE,[8],0.1 mg/dL
same,Ca,[8],10.7 mg/dL
same,Cl,[8],106.8 meq/L
same,DBIL,[8],0 mg/dL
same,GLC,[8],170.2 mg/dL
same,IP,[8],7.9 mg/dL
same,K,[8],4.2 meq/L
same,LDH,[8],256.2 IU/L
same,Na,[8],141.8 meq/L
same,PL,[8],149 mg/dL
same,RALB,[8],3.2 g/dL
same,TBIL,[8],0.012 mg/dL
same,TC,[8],79.6 mg/dL
same,TG,[8],78 mg/dL
same,TP,[8],5.8 g/dL
same,gamma-GTP,[8],1 IU/L
